The results in this text go back to ChEMBL document CHEMBL1201862, “PubChem BioAssay data set” (2004).

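Test compounds were applied to cells in 96-well plates for 48 hours at 5 doses. The concentration for 50% growth inhibition is given as GI50.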 The source made the active and inactive calls. Rule as the data show it: active = GI50 up to about 1.1 µM and inactive = higher. Some results are limits rather than exact numbers.

Test systems include HL-60; MOLT-4; Malme-3M; NCI-H226; NCI-H23; NCI-H522; OVCAR-8; RPMI-8226; SF-295; SK-MEL-28; SK-MEL-2; SNB-19; SNB-75; SR; UACC-62; EKVX; RXF 393.
What all share (assay): NCI anticancer screen, dose series, 48 h

Turning to `Nc1nc(CCl)nc(Nc2ccccc2)n1`, the GI50 is 3.27 µM (inactive) with HL-60; 15.8 µM (inactive) with MOLT-4; 17.4 µM (inactive) with Malme-3M; 26.2 µM (inactive) in the test on NCI-H226; 18.6 µM (inactive) in the test on NCI-H23; 1.75 µM (inactive) with NCI-H522. For the same compound, the GI50 is 30.2 µM (inactive) with OVCAR-8; 4.1 µM (inactive) with RPMI-8226; 23.8 µM (inactive) in the test on SF-295; 15.8 µM (inactive) with SK-MEL-28; 18.8 µM (inactive) with SK-MEL-2; 46.6 µM (inactive) in the test with SNB-19. Further, the values for the GI50 in the test on SNB-75, in the test on SR and in the test with UACC-62 were 6.24 µM (inactive), 12.9 µM (inactive) and 19 µM (inactive), respectively.
As to `C/C(CCn1[nH]c(=O)ccc1=O)=N\N=C(N)N`, the GI50 in the test on EKVX, with HL-60, in the test on MOLT-4, with Malme-3M, with NCI-H226 and in the test on NCI-H23 was > 100 µM (inactive) in each case. The GI50 with OVCAR-8, in the test on RPMI-8226, with RXF 393, with SF-295, with SK-MEL-28 and with SK-MEL-2 was > 100 µM (inactive) each time. Besides, the GI50 in the test with SNB-19, in the test with SNB-75, in the test on SR and with UACC-62 was > 100 µM (inactive) throughout.
Regarding `NC1=C(NC(=O)Cc2ccccc2F)C(=O)c2ccccc2C1=O`, the GI50 in the test with EKVX was 59.3 µM (inactive); in the test on HL-60, 88.3 µM (inactive); in the test with MOLT-4, > 100 µM (inactive); in the test on Malme-3M it was 13.6 µM (inactive); in the test on NCI-H226, > 100 µM (inactive); in the test with NCI-H23 it was 40.6 µM (inactive). Besides, the GI50 in the test on NCI-H522 is 21.6 µM (inactive); with OVCAR-8, 39.2 µM (inactive); in the test on RPMI-8226, > 100 µM (inactive); with RXF 393 it was 34.4 µM (inactive); with SF-295, 32.6 µM (inactive); with SK-MEL-28, > 100 µM (inactive). Moreover, the GI50 in the test with SK-MEL-2 is 14.3 µM (inactive); with SNB-19 it was 35.8 µM (inactive); with SNB-75, 18.8 µM (inactive); in the test with UACC-62 it was 37.8 µM (inactive).
As to `COc1cc(C=O)c(-c2c(C=O)ccc3c2OCO3)c(OC)c1OC`, the GI50 was > 100 µM (inactive) in the test with EKVX; 26.7 µM (inactive) in the test with HL-60; 76.2 µM (inactive) with MOLT-4; 67.3 µM (inactive) in the test on Malme-3M; > 100 µM (inactive) in the test with NCI-H226; > 100 µM (inactive) with NCI-H23. For the same compound, the GI50 with NCI-H522 was 88.5 µM (inactive); in the test on OVCAR-8 it was > 100 µM (inactive); in the test with RPMI-8226 it was 56.5 µM (inactive); in the test on SF-295 it was 60.4 µM (inactive); in the test with SK-MEL-28 it was 74.6 µM (inactive); in the test on SK-MEL-2 it was > 100 µM (inactive). The GI50 was 49.8 µM (inactive) in the test with SNB-19, 55.2 µM (inactive) in the test with SNB-75, 29.6 µM (inactive) in the test on SR and 62.5 µM (inactive) in the test with UACC-62.
On to `Nc1nc(N)c(-c2ccccc2)c(C(=O)Nc2ccccc2)n1`, for which the GI50 with EKVX, in the test with MOLT-4, in the test with Malme-3M, in the test with NCI-H226, in the test on NCI-H23 and in the test on NCI-H522 was > 100 µM (inactive) each time. For the same compound, the GI50 with OVCAR-8, in the test on RPMI-8226, with RXF 393, with SK-MEL-28, with SK-MEL-2 and in the test on SNB-19 was > 100 µM (inactive) throughout. Besides, the GI50 in the test on SNB-75 and in the test on UACC-62 was > 100 µM (inactive) in each case.
As for `CCN1CCC(O)(c2ccc(C)cc2)C(C(=O)c2ccc(C)cc2)C1` (stereo unspecified), the GI50 was 17.3 µM (inactive) with EKVX; 20.3 µM (inactive) in the test with HL-60; 29 µM (inactive) with MOLT-4; 19.5 µM (inactive) with Malme-3M; > 100 µM (inactive) in the test with NCI-H226; > 40 µM (inactive) with NCI-H23. In addition, the GI50 in the test with NCI-H522 was 1.94 µM (inactive); in the test on OVCAR-8, 25.5 µM (inactive); with RPMI-8226, 12.9 µM (inactive); in the test with SF-295, > 100 µM (inactive); in the test on SK-MEL-28 it was 23.9 µM (inactive); in the test with SK-MEL-2 it was > 100 µM (inactive). For the same compound, the GI50 in the test on SNB-19 was > 80.7 µM (inactive); in the test on SNB-75, 71.9 µM (inactive); with SR it was 23.9 µM (inactive); with UACC-62, > 42.6 µM (inactive).
With `O=[N+]([O-])c1ccc(C2=NN(c3ccccc3)C[N+](c3ccc(Br)cc3)=N2)cc1`, the GI50 is > 100 µM (inactive) in the test with EKVX; 44.3 µM (inactive) in the test with MOLT-4; > 100 µM (inactive) with Malme-3M; > 100 µM (inactive) with NCI-H226; 70.6 µM (inactive) with NCI-H23; 38.1 µM (inactive) in the test with NCI-H522. The GI50 in the test on OVCAR-8 is > 100 µM (inactive); with RPMI-8226 it was > 100 µM (inactive); in the test on RXF 393, 31.1 µM (inactive); in the test with SF-295, 75.5 µM (inactive); in the test with SK-MEL-28, > 100 µM (inactive); in the test with SK-MEL-2, > 100 µM (inactive). In addition, the GI50 was > 100 µM (inactive) in the test with SNB-19, > 100 µM (inactive) with SNB-75, 96.8 µM (inactive) in the test on SR and > 100 µM (inactive) in the test with UACC-62.
Turning to `CC1(CO)OC(n2cc(C(=O)NC(=O)OCc3ccccc3)c(=O)[nH]c2=O)CC1O` (stereo unspecified), the GI50 in the test with HL-60, with MOLT-4, in the test with Malme-3M, in the test with NCI-H226, with NCI-H23 and with NCI-H522 was > 100 µM (inactive) throughout. Besides, the GI50 with OVCAR-8 is > 100 µM (inactive); with RPMI-8226 it was > 100 µM (inactive); in the test on SF-295 it was > 100 µM (inactive); with SK-MEL-28, > 100 µM (inactive); in the test with SNB-19, > 100 µM (inactive); in the test on SNB-75, 84.5 µM (inactive). Besides, the GI50 with SR and in the test with UACC-62 was > 100 µM (inactive) in each case.
With `CN(C)c1ccc2c(c1)C(=O)N(OS(=O)(=O)c1ccc([N+](=O)[O-])cc1)C2=O`, the GI50 with EKVX is 42.7 µM (inactive); with HL-60, 28.6 µM (inactive); with Malme-3M it was 31.2 µM (inactive); in the test on NCI-H226, 72.8 µM (inactive); in the test on NCI-H23 it was 26.2 µM (inactive); in the test on NCI-H522 it was 15 µM (inactive). Further, the GI50 with OVCAR-8 was 25.5 µM (inactive); in the test with RXF 393, 13.9 µM (inactive); in the test on SF-295, 25.2 µM (inactive); in the test on SK-MEL-28 it was 26.1 µM (inactive); in the test with SK-MEL-2, 29.2 µM (inactive); in the test with SNB-19, 41.7 µM (inactive). Further, the GI50 with SNB-75 was 31.6 µM (inactive); in the test on SR, 22.4 µM (inactive); in the test with UACC-62, 17.1 µM (inactive).
Regarding `COc1ccc(NCc2cc(OC)c(OC)c(OC)c2)cc1`, the GI50 is 4.97 µM (inactive) in the test with EKVX; 0.115 µM (active) with HL-60; 0.451 µM (active) in the test with MOLT-4; 0.513 µM (active) with NCI-H23; 0.372 µM (active) in the test with NCI-H522; 0.851 µM (active) in the test on OVCAR-8. Also, the GI50 in the test with RPMI-8226 is 0.459 µM (active); in the test on RXF 393, 0.342 µM (active); in the test with SF-295 it was 0.242 µM (active); with SK-MEL-28, 0.275 µM (active); in the test on SK-MEL-2 it was 0.245 µM (active); in the test with SNB-19 it was 1.19 µM (inactive). Further, in the test with UACC-62, the GI50 was 0.271 µM (active).
